“And” between values parts separate entries of the source, which are not always exact repeats. Equal values may be shown once.
Test system: HCC1806 breast cancer cells
Test: MTT proliferation assay on HCC1806 cells
Format: cell-based, human
Protocol: HCC 1806—Primary Acantholytic Squamous Cell Carcinoma
(Colorimetric assays using the tetrazolium salt thiazolyl blue, also termed MTT, after methyl-thiazolyl-tetrazolium)
Around 1500 cells are in placed in each well in 96 well plates, 10 extracts (tested 2 concentrations each, 0.007 mg/ml and 0.015 μg/μl) were added to separate wells. Untreated cells and DMSO-treated cells were used as controls in separate wells. Experiments were performed in triplicate. A total number of 9×10^4 cells are required at each concentration. The well plates were purchased from Sigma Aldrich.
Mix cells and medium nicely, add 150 μl per well, plate eight 96-well plates for each experiment.
Place 96-well plates in a 37° C. incubator with 5% CO2. After 24 hours, the medium was changed to the medium containing extracts.
The MTT assay was performed from Day 0 to Day 7 by adding 15 μl MTT labeling reagent into each well and incubated at 37° C. for 4 hours. Thereafter, 150 μl solubilization solution was added into each well and incubated overnight in the 37° C. incubator with 5% CO2.
3-(4,5-Dimethylthiazol-2-yl)-2,5-diphenyltetrazolium bromide assays were performed using the Cell Proliferation Kit I (Roche Diagnostics GmbH) as the manufacturer's instructions. The absorbance of the samples was measured at 595 nm using a microtiter plate reader (FLUOstar Omega, BMG LABTECH). The experiments were done in triplicate.

Compound	effective (active) concentration on HCC1806 cancer cells (pure cannabinoid)	effective concentration on HCC1806 cancer cells, converted (pure cannabinoid, conversion of 15 μM) [µg/µL]	effectiveness of pure cannabinoid on HCC1806 cancer cells (20 μM (0.0063 μg/μl))
C=C(C)[C@@H]1CCC(C)=C[C@H]1c1c(O)cc(CCCCC)cc1O [CBD, cannabidiol]	15 to 20 µM and 15 µM	0.0047	
CCCCCc1cc(O)c2c(c1)OC(C)(C)[C@@H]1CCC(C)=C[C@@H]21 [THC, tetrahydrocannabinol]			only marginally and insignificantly effective

From patent US20200197461A1, “NOVEL CANNABIS SATIVA LINES AND EXTRACTS WITH ANTI-CANCER PROPERTIES” (Pathway RX Inc., priority 2018, published 2020)
